Test results published in article PMC12615485, “New dengue virus inhibitors targeting NS3-NS5 interaction identified by in silico screening” (Frontiers in Microbiology, 2025).
Like-named read-outs stand apart in the source and are kept apart here.

Key:
[1] = biological target: NS3-NS5 interaction (NS3 f.l. binding to coated 6His-NS5_270–900) (Dengue virus type 2, UniProt P14340); experiment: ELISA-based NS3-NS5 interaction assay; design: species or system DENV-2; conditions: for IC50: read-out: In vitro activity IC50; for reduction of NS3-NS5 interaction: at the tested concentrations; for inhibition at 100 µM: fixed concentration of 100 μM, compared with DMSO control
Method: Nunc Maxisorp microplates (Thermo Fisher Scientific) were coated with 400 ng/well of 6His-NS5_270–900, or GST protein as a control, in PBS for 3 h at 37 °C and then blocked with 5% (wt/v) bovine serum albumin (BSA, Merck Life Science) in PBS overnight at 4 °C. Blocked wells were incubated at room temperature (RT) for 2 h with increasing amounts of NS3 f.l. or GST–NS3_172–618. 6His-NS5_270–900-coated plates were also incubated with increasing concentration of GST, as a control. After washing with PBS containing 0.3% Tween 20 (Fisher Scientific, Waltham, MA, United States), the NS3-NS5 interaction was detected by incubating the plates with the anti-NS3 monoclonal antibody (GT2811 clone, Genetex, Irvine, CA, United States) diluted 1:6,000 in PBS + 2% (v/v) FBS (Thermo Fisher Scientific) for 1 h at RT. The unbound primary antibody was removed by further washes with PBS + 0.3% Tween 20 and the secondary goat anti-mouse HRP-conjugated antibody (GenScript Biotech) at a dilution of 1:8,000 in PBS + 2% FBS was then added. After incubation for 1 h at RT and following washes, the colorimetric substrate 3,3′,5,5′-tetramethylbenzidine (TMB, SeraCare Life Sciences, Milford, MA, United States) was added to each well and absorbance was read at 450 nm by an ELISA plate reader (Tecan Infinite 200 PRO, Mannedorf, Switzerland).
To test the inhibitory effect of compounds on NS3-NS5 interaction, 6His-NS5_270–900-coated wells were incubated with a fixed amount of NS3 f.l. (200 ng) along with increasing concentrations of test compounds or DMSO as a control. To exclude non-specific inhibition of compounds due to colloidal aggregation, the inhibitory activities of compounds were tested in the presence or the absence of 0.002% Triton X-100 (Fisher Scientific), a condition which reverses and prevents the colloidal formation of organic molecules ([McGovern et al., 2003]). All the compound concentrations were tested at least in duplicate.

DENV-2 NGC strain = experiment: Plaque reduction assay (PRA) in Vero cells; assay type: cell-based; conditions: for EC50: PRA in Vero cells, read-out: Antiviral activity EC50; for SI (selectivity index): ratio between CC50 and EC50
MTT cytotoxicity assay = conditions: African green monkey, Vero cells
[2] = analogues of hit 3, in-house synthesized hit 3 as control, 50% inhibition of NS3-NS5 binding in ELISA
[3] = Dengue virus, DENV2, Vero, selected hits, 50% inhibition of viral plaque formation, DENV-2
[4] = selected hits, concentration that decreased the NS3-NS5 binding by 50% in ELISA

Compound: CN(C)c1ccc(NC(=S)NNC(=O)c2cccs2)cc1 [Compound 70]
- IC50 [1, 2]: 25.3 ± 5.4 µM

Compound: CN(C)c1ccc(NC(=S)NNC(=O)c2ccco2)cc1 [Compound 71]
- IC50 [1, 2]: 11.6 ± 2.6 µM

Compound: Cc1ccc(NC(=S)NNC(=O)c2ccc(C(C)(C)C)cc2)cc1 [Compound 72]
- EC50 (DENV-2 NGC strain; best analogues of hit 3, in-house synthesized hit 3 as control, NGC strain): 2.8 ± 1.9 µM
- CC50 (Vero cells): 211 ± 20 µM

Compound: Cc1ccc(NC(=S)NNC(=O)c2ccc(C(F)(F)F)cc2C(F)(F)F)cc1 [Compound 73]
- IC50 [1, 2]: > 200 µM
- reduction of NS3-NS5 interaction [1]: < 50%

Compound: COc1ccc(NC(=S)NNC(=O)c2ccccc2O)cc1 [Compound 74]
- IC50 [1, 2]: > 200 µM
- reduction of NS3-NS5 interaction [1]: < 50%

Compound: N#Cc1ccc(NC(=S)NNC(=O)c2ccccc2O)cc1 [Compound 75]
- IC50 [1, 2]: 40.3 ± 8.3 µM

Compound: CC(C)(C)c1ccc(NC(=S)NNC(=O)c2ccccc2O)cc1 [Compound 76]
- IC50 [1, 2]: 6.3 ± 2.2 µM

Compound: Cc1ccc(NC(=S)NNC(=O)c2ccc(C#N)cc2)cc1 [Compound 77]
- IC50 [1, 2]: > 200 µM
- reduction of NS3-NS5 interaction [1]: < 50%

Compound: Cc1ccc(Nc2nc(-c3ccccc3O)cs2)cc1 [Compound 78]
- IC50 [1, 2]: > 200 µM
- reduction of NS3-NS5 interaction [1]: < 50%

Compound: Cc1ccc(NC(=O)NNC(=O)c2ccccc2O)cc1 [Compound 79]
- IC50 [1, 2]: 13.9 ± 6.5 µM

Compound: O=C(NCc1nc2ccccc2[nH]1)c1ccc2[nH]nnc2c1 [Hit 1]
- EC50 (DENV-2 NGC strain; [3]): > 100 µM
- SI (selectivity index) (DENV-2 NGC strain; selected hits): >3
- inhibition at 100 µM [1]: ≥ 50%
- IC50 [1, 4]: 85.9 ± 14.5 µM
- CC50 at 72 h (MTT cytotoxicity assay): > 250 µM

Compound: Cc1ccc(C(=O)Nc2cc(-c3cccc(F)c3F)n[nH]2)c(=O)[nH]1 [Hit 4]
- EC50 (DENV-2 NGC strain; [3]): > 10 µM
- SI (selectivity index) (DENV-2 NGC strain; selected hits): 1
- inhibition at 100 µM [1]: ≥ 50%
- IC50 [1, 4]: 18.7 ± 2.1 µM
- CC50 at 72 h (MTT cytotoxicity assay): 12.7 ± 4 µM

Compound: Cc1nc(NC(=O)c2ccc(C(N)=O)cc2)sc1SCC#N [Hit 6]
- EC50 (DENV-2 NGC strain; [3]): 98.8 ± 10.4 µM
- SI (selectivity index) (DENV-2 NGC strain; selected hits): >3
- inhibition at 100 µM [1]: ≥ 50%
- IC50 [1, 4]: 51.4 ± 10.3 µM
- CC50 at 72 h (MTT cytotoxicity assay): > 250 µM

Compound: N=c1c2cnn(-c3ccccc3)c2ncn1NC(=S)Nc1ccccc1 [Hit 15]
- EC50 (DENV-2 NGC strain; [3]): > 100 µM
- SI (selectivity index) (DENV-2 NGC strain; selected hits): >3
- inhibition at 100 µM [1]: ≥ 50%
- IC50 [1, 4]: 123 ± 16 µM
- CC50 at 72 h (MTT cytotoxicity assay): > 250 µM

Compound: NC(=O)COc1ccc(CNC(=O)Nc2ccc(Cl)cc2)cc1 [Hit 29]
- EC50 (DENV-2 NGC strain; [3]): 34.3 ± 9.4 µM
- SI (selectivity index) (DENV-2 NGC strain; selected hits): 1
- inhibition at 100 µM [1]: ≥ 50%
- IC50 [1, 4]: 142 ± 26 µM
- CC50 at 72 h (MTT cytotoxicity assay): 35.7 ± 4.9 µM

Compound: O=C(NCc1ncc(-c2ccccc2)[nH]1)Nc1ccncc1F [Hit 30]
- EC50 (DENV-2 NGC strain; [3]): 24.6 ± 5.9 µM
- inhibition at 100 µM [1]: ≥ 50%
- IC50 [1, 4]: 44.6 ± 8.1 µM
- CC50 at 72 h (MTT cytotoxicity assay): > 250 µM

Compound: O=C(CCc1ccccn1)Nc1ccc2[nH]nnc2c1 [Hit 44]
- EC50 (DENV-2 NGC strain; [3]): 97.4 ± 12.6 µM
- SI (selectivity index) (DENV-2 NGC strain; selected hits): >1
- inhibition at 100 µM [1]: ≥ 50%
- IC50 [1, 4]: 78.5 ± 16.4 µM
- CC50 at 72 h (MTT cytotoxicity assay): > 100 µM

Compound: N#Cc1nc2c(-c3nc4ccccc4[nH]3)c(N)n(Cc3ccco3)c2nc1C#N [Hit 47]
- EC50 (DENV-2 NGC strain; [3]): 53.5 ± 6.9 µM
- SI (selectivity index) (DENV-2 NGC strain; selected hits): >5
- inhibition at 100 µM [1]: ≥ 50%
- IC50 [1, 4]: 16.9 ± 2.5 µM
- CC50 at 72 h (MTT cytotoxicity assay): > 250 µM

Compound: N#Cc1cn[nH]c1NCc1ccc(OCc2ccccc2)cc1O [Hit 50]
- EC50 (DENV-2 NGC strain; [3]): 13.4 ± 1.8 µM
- SI (selectivity index) (DENV-2 NGC strain; selected hits): >19
- inhibition at 100 µM [1]: ≥ 50%
- IC50 [1, 4]: 32 ± 6.7 µM
- CC50 at 72 h (MTT cytotoxicity assay): > 250 µM

Compound: CC(C)C[C@H](NC(=O)[C@H](C)NC(=O)[C@H](CC(C)C)NC(=O)[C@@H](NC(=O)[C@H](CCC(N)=O)NC(=O)[C@@H](NC(=O)[C@H](CCC(=O)O)NC(=O)[C@H](CCC(=O)O)NC(=O)CNC(=O)[C@H](CCC(=O)O)NC(=O)[C@H](CCCCN)NC(=O)[C@H](Cc1c[nH]c2ccccc12)NC(=O)[C@H](CCC(=O)O)NC(=O)CNC(=O)[C@@H](N)CCC(=O)O)C(C)C)C(C)C)C(=O)O [NS3_86–100 peptide, reference compound]
- inhibitory effect on NS3-NS5 interaction ([1]; up to 480 μM): no inhibitory effect
